From US7041698B2, “Hepatitis C virus inhibitors” (Bristol-Myers Squibb Company, priority 2002, dated 2006)

What was measured:
[1] = biological target: T1, HCV NS3/4A protease complex (UniProt P27958, C1454S/C1711G, species not given); assay: Recombinant HCV NS3/4A protease complex FRET peptide assay (strain not stated); assay type: biochemical; conditions: read-out: IC50 range, HCV NS3/4A protease enzyme assay
T1 construct: fused on or other part: Three-lysine solubilising tail at the C-terminus of NS4A

[2] = biological target: T2, NS3/4A H77C strain (Hepatitis C virus genotype 1a, UniProt P27958, C1454S); assay: Recombinant HCV NS3/4A protease complex FRET peptide assay, H77C strain; assay type: biochemical, HCV genotype 1a
T2 construct: DNA encoding the recombinant HCV NS3/4A protease complex (amino acids 1027 to 1711) for these strains; His tag (inferred from pET21b vector and Ni-NTA purification); made in house; host or cells: Escherichia coli BL21 (DE3)
Text: Recombinant HCV NS3/4A Protease Complex FRET Peptide Assay
The purpose of this in vitro assay was to measure the inhibition of HCV NS3 protease complexes, derived from the BMS, H77C or J416S strains, as described below, by compounds of the present invention. This assay provides an indication of how effective compounds of the present invention would be in inhibiting HCV proteolytic activity.
Serum from an HCV-infected patient was obtained from Dr. T. Wright, San Francisco Hospital. An engineered full-length cDNA (compliment deoxyribonucleic acid) template of the HCV genome (BMS strain) was constructed from DNA fragments obtained by reverse transcription-PCR (RT-PCR) of serum RNA (ribonucleic acid) and using primers selected on the basis of homology between other genotype 1a strains. From the determination of the entire genome sequence, a genotype 1a was assigned to the HCV isolate according to the classification of Simmonds et al. (See P Simmonds, K A Rose, S Graham, S W Chan, F McOmish, B C Dow, E A Follett, P L Yap and H Marsden, J. Clin. Microbiol., 31(6), 1493–1503 (1993)). […]

[3] = biological target: T3, porcine pancreatic elastase (PPE) (Sus scrofa, UniProt P00772); assay: Specificity assay, porcine pancreatic elastase; assay type: biochemical; conditions: 2 hr pre-incubation at RT
T3 construct: purchased Sigma
Protocol: The specificities of compounds of the present invention were determined against a variety of serine proteases: human sputum elastase (HS), porcine pancreatic elastase (PPE) and human pancreatic chymotrypsin and one cysteine protease: human liver cathepsin B. In all cases a 96-well plate format protocol using calorimetric p-nitroaniline (pNA) substrate specific for each enzyme was used as described previously (Patent WO 00/09543) with some modifications to the serine protease assays. All enzymes were purchased from Sigma while the substrates were from Bachem.
Each assay included a 2 hr enzyme-inhibitor pre-incubation at RT followed by addition of substrate and hydrolysis to ˜30% conversion as measured on a Spectramax Pro microplate reader. Compound concentrations varied from 100 to 0.4 μM depending on their potency. […]
The percentage of inhibition was calculated using the formula: [1-((UVinh−UVblank)/(UVctl−UVblank))]×100 […]

T2 sequence (P27958 1027-1657 C1454S): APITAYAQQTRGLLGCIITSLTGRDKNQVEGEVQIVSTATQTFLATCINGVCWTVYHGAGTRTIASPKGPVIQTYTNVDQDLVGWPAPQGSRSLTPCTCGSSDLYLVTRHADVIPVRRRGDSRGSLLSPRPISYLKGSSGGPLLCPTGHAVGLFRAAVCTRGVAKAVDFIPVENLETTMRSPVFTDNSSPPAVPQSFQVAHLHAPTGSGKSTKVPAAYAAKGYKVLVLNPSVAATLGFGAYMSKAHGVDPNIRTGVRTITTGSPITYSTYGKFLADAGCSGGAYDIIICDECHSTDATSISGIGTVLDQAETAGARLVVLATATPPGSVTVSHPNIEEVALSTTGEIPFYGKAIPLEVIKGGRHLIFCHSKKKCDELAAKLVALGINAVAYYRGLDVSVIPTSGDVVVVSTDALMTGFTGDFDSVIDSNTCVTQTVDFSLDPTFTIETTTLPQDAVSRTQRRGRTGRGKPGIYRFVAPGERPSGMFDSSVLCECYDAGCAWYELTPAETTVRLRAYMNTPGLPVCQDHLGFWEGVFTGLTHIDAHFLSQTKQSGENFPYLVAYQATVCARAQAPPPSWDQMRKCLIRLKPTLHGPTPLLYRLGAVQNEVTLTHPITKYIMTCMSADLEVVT
T2 sequence (P27958 1658-1714 partner, looked up, stated change not applied): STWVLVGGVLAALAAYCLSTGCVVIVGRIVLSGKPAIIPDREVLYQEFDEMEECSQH
T3 sequence (P00772 27-266): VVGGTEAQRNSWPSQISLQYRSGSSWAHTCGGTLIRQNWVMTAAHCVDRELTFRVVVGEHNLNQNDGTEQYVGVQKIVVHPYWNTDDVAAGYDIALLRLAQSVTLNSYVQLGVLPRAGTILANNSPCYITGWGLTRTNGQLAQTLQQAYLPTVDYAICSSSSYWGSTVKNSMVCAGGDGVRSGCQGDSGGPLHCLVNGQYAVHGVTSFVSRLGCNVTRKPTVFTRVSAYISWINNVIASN

`C=CC1C[C@]1(NC(=O)[C@@H]1C[C@@H](OC(=O)Nc2ccccc2-c2ccccc2)CN1C(=O)[C@@H](NC(=O)OC(C)(C)C)C(C)(C)C)C(=O)NS(=O)(=O)C1CC1` (stereo partly drawn) [Compound 8, BocNH-P3(t-BuGly)-P2(Hyp(O—CO(NH-biphen-2-yl)))-P1(1R,2S VinylAcca)—CONHSO2Cyclopropane] gave an IC50 [1] of less than 100 nM, an IC50 [2] of 11 nM and an IC50 [3] greater than 100000 nM.
